Measured values as given in patent publication US20210395650A1, “COMPOUNDS STABILIZING HYDROLASES IN LIQUIDS” (BASF SE, priority 2018, published 2021).

Biological target: T1, Savinase® 16.0L (Lederbergia lenta, UniProt P29600)
T1 construct: purchased Sigma-Aldrich
T1 sequence (P29600 1-269): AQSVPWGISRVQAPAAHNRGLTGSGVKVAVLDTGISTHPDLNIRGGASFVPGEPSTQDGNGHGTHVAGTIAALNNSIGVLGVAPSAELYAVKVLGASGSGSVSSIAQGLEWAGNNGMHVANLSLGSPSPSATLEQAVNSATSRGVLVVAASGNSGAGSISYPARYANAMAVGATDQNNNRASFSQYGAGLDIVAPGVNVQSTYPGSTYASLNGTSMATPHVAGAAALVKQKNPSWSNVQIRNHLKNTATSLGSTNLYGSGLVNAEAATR
Test: Protease storage stability in liquid formulations at 37° C. (Suc-AAPF-pNA assay)
Format: biochemical
Conditions: 0.7 wt% Savinase 16.0 L
Procedure: The storage stability of protease was assessed at 37° C.
Base test formulations were manufactured by making base formulations I to V by mixing the components according to Table 1.
Protease used: Savinase® 16.0L (CAS-No. 9014-01-1, EC-No. 232-752-2) was purchased from Sigma-Aldrich.
The respective component (a) or comparative compound was added, if applicable, to the respective base formulation in amounts as indicated in Table 1.
The amount of protease as provided in Table 1 refers to active protein.
Water was added to accomplish the balance to 100.
Savinase activity at certain points in time as indicated in Table 2 was be determined by employing Succinyl-Ala-Ala-Pro-Phe-p-nitroanilide (Suc-AAPF-pNA, short AAPF) as substrate. pNA is cleaved from the substrate molecule by proteolytic cleavage, resulting in release of yellow color of free pNA which was determined by measuring OD405. Measurements were done at 20° C.
The proteolytic activity values provided in Table 3 were calculated referring to the 100% value determined in the reference formulation at the time 0.
The nomenclature of formulations is as follows: the Roman number before the full stop characterizes the base formulation, the Arabian number the type of compound (A. # compound according to invention (component (a)); (B. #) comparative compound).

[1] = base formulation I, 2.5 wt% compound, 3 d
[2] = base formulation I, 2.5 wt% compound, 7 d
[3] = base formulation I, 2.5 wt% compound, 14 d
[4] = base formulation I, 2.5 wt% compound, 21 d
[5] = base formulation I, 2.5 wt% compound, 28 d
[6] = base formulation I, 2.5 wt% compound, 35 d
[7] = base formulation I, 2.5 wt% compound, T0
[8] = base formulation II, 2.5 wt% compound, 3 d
[9] = base formulation II, 2.5 wt% compound, 7 d
[10] = base formulation II, 2.5 wt% compound, 14 d
[11] = base formulation II, 2.5 wt% compound, 21 d
[12] = base formulation II, 2.5 wt% compound, 28 d
[13] = base formulation II, 2.5 wt% compound, 35 d
[14] = base formulation II, 2.5 wt% compound, T0
[15] = base formulation III, 2.0 wt% compound, 3 d
[16] = base formulation III, 2.0 wt% compound, 7 d
[17] = base formulation III, 2.0 wt% compound, 14 d
[18] = base formulation III, 2.0 wt% compound, 21 d
[19] = base formulation III, 2.0 wt% compound, 28 d
[20] = base formulation III, 2.0 wt% compound, 35 d
[21] = base formulation III, 2.0 wt% compound, T0
[22] = base formulation IV, 2.0 wt% compound, 3 d
[23] = base formulation IV, 2.0 wt% compound, 7 d
[24] = base formulation IV, 2.0 wt% compound, 14 d
[25] = base formulation IV, 2.0 wt% compound, 21 d
[26] = base formulation IV, 2.0 wt% compound, 28 d
[27] = base formulation IV, 2.0 wt% compound, 35 d
[28] = base formulation IV, 2.0 wt% compound, T0
[29] = base formulation V, 2.0 wt% compound, 3 d
[30] = base formulation V, 2.0 wt% compound, 7 d
[31] = base formulation V, 2.0 wt% compound, 14 d
[32] = base formulation V, 2.0 wt% compound, 21 d
[33] = base formulation V, 2.0 wt% compound, 28 d
[34] = base formulation V, 2.0 wt% compound, 35 d
[35] = base formulation V, 2.0 wt% compound, T0

Compound	protease activity in the course of time of storage at 37° C. [1] [%]	protease activity in the course of time of storage at 37° C. [2] [%]	protease activity in the course of time of storage at 37° C. [3] [%]	protease activity in the course of time of storage at 37° C. [4] [%]	protease activity in the course of time of storage at 37° C. [5] [%]	protease activity in the course of time of storage at 37° C. [6] [%]	protease activity in the course of time of storage at 37° C. [8] [%]	protease activity in the course of time of storage at 37° C. [9] [%]	protease activity in the course of time of storage at 37° C. [10] [%]	protease activity in the course of time of storage at 37° C. [11] [%]	protease activity in the course of time of storage at 37° C. [12] [%]	protease activity in the course of time of storage at 37° C. [13] [%]	protease activity in the course of time of storage at 37° C. [14] [%]	protease activity in the course of time of storage at 37° C. [15] [%]	protease activity in the course of time of storage at 37° C. [16] [%]	protease activity in the course of time of storage at 37° C. [17] [%]	protease activity in the course of time of storage at 37° C. [18] [%]	protease activity in the course of time of storage at 37° C. [19] [%]	protease activity in the course of time of storage at 37° C. [20] [%]	protease activity in the course of time of storage at 37° C. [21] [%]	also measured
CCOC(=O)CC(O)(CC(=O)OCC)C(=O)OCC [A.1, Triethylcitrate]	96	93	89	83	79	72	100	96	93	89	83	78	100	98	94	91	87	84	81	100	protease activity in the course of time of storage at 37° C. [7]: 100%; protease activity in the course of time of storage at 37° C. [22]: 96%; protease activity in the course of time of storage at 37° C. [23]: 93%; protease activity in the course of time of storage at 37° C. [24]: 88%; protease activity in the course of time of storage at 37° C. [25]: 82%; protease activity in the course of time of storage at 37° C. [26]: 79%; protease activity in the course of time of storage at 37° C. [27]: 74%; protease activity in the course of time of storage at 37° C. [28]: 98%; protease activity in the course of time of storage at 37° C. [29]: 94%; protease activity in the course of time of storage at 37° C. [30]: 90%; protease activity in the course of time of storage at 37° C. [31]: 86%; protease activity in the course of time of storage at 37° C. [32]: 83%; protease activity in the course of time of storage at 37° C. [33]: 79%; protease activity in the course of time of storage at 37° C. [34]: 75%; protease activity in the course of time of storage at 37° C. [35]: 97%
CCCOC(=O)CC(O)(CC(=O)OCCC)C(=O)OCCC [A.2, Tripropylcitrate]	100	94	91	85	80	76	–	–	–	–	–	–	–	100	100	96	91	88	84	102	protease activity in the course of time of storage at 37° C. [7]: 101%
CCCCOC(=O)CC(O)(CC(=O)OCCCC)C(=O)OCCCC [A.3, Tributylcitrate]	–	–	–	–	–	–	–	–	–	–	–	–	–	–	–	–	–	–	–	–	protease activity in the course of time of storage at 37° C. [22]: 100%; protease activity in the course of time of storage at 37° C. [23]: 96%; protease activity in the course of time of storage at 37° C. [24]: 91%; protease activity in the course of time of storage at 37° C. [25]: 84%; protease activity in the course of time of storage at 37° C. [26]: 81%; protease activity in the course of time of storage at 37° C. [27]: 77%; protease activity in the course of time of storage at 37° C. [28]: 99%; protease activity in the course of time of storage at 37° C. [29]: 98%; protease activity in the course of time of storage at 37° C. [30]: 93%; protease activity in the course of time of storage at 37° C. [31]: 88%; protease activity in the course of time of storage at 37° C. [32]: 85%; protease activity in the course of time of storage at 37° C. [33]: 80%; protease activity in the course of time of storage at 37° C. [34]: 74%; protease activity in the course of time of storage at 37° C. [35]: 101%
CCCCOC(=O)CC(CC(=O)OCCCC)(OC(C)=O)C(=O)OCCCC [A.4, Acetyltributylcitrate]	100	96	92	87	83	79	–	–	–	–	–	–	–	–	–	–	–	–	–	–	–
CCOC(=O)CC(CC(=O)OCC)(OC(C)=O)C(=O)OCC [A.5, Acetyltriethylcitrate]	96	94	90	85	82	78	101	100	94	90	85	81	102	97	95	91	86	81	77	99	protease activity in the course of time of storage at 37° C. [7]: 98%
CCOC(=O)CC(O)(CC(=O)O)C(=O)O (stereo not shown) [A.6, Monoethylcitrate]	–	–	–	–	–	–	102	100	95	92	87	83	101	96	92	86	82	79	76	99	–
O=C(CC(O)(CC(=O)OCc1ccccc1)C(=O)OCc1ccccc1)OCc1ccccc1 [A.8, Tribenzylcitrate]	–	–	–	–	–	–	94	91	88	85	83	77	100	–	–	–	–	–	–	–	protease activity in the course of time of storage at 37° C. [29]: 96%; protease activity in the course of time of storage at 37° C. [30]: 92%; protease activity in the course of time of storage at 37° C. [31]: 86%; protease activity in the course of time of storage at 37° C. [32]: 84%; protease activity in the course of time of storage at 37° C. [33]: 80%; protease activity in the course of time of storage at 37° C. [34]: 73%; protease activity in the course of time of storage at 37° C. [35]: 96%
